In patent US7169763B2, “Cytochrome P450 3A inhibitors and enhancers” (priority 2002, dated 2007):

What was measured:
CYP3A = test system: CYP3A; design: CYP3A Activity (percentage of control): dose or concentration left out as unconfirmed
[1] = given by mouth; cited from earlier work

Structure (SMILES) | inhibitory effects on rat liver CYP3A (in words) (CYP3A) | CYP3A Activity (percentage of control) (CYP3A; rat, 15 min, 10.22) | fraction of active ingredient quickly changed to metabolites [1] [%]
O=C/C=C/c1ccccc1 [Trans-cinnamaldehyde] | particularly effective | 30.95 ± 1.03 percentage of control | 
CC(C)(C)c1ccc(C(O)CCCN2CCC(C(O)(c3ccccc3)c3ccccc3)CC2)cc1 (stereo not drawn) [terfenadine] |  |  | 99.5
